Measurements taken from US20200253929A1, “TREATMENT OF EPILEPSY” (priority 2017, published 2020).

Tests used:
[1] = tested on: PTZ-induced seizures in zebrafish larvae; assay: Zebrafish PTZ seizure model, behavioral analysis; format: in vivo, Danio rerio; conditions: lower concentrations (MTC/2, MTC/4), 2 hours incubation
CYP2C9 = target: T1, CYP2C9 (Homo sapiens, UniProt P11712); assay: CYP450 enzyme inhibition assay, CYP2C9; format: in vitro ADME; conditions: human liver microsomes; for IC50: diclofenac probe
T1 construct: containing Human Liver Microsomes (HLM) (0.5 mg/mL); from tissue; host or cells: human liver microsomes
T1 sequence (P11712 whole entry): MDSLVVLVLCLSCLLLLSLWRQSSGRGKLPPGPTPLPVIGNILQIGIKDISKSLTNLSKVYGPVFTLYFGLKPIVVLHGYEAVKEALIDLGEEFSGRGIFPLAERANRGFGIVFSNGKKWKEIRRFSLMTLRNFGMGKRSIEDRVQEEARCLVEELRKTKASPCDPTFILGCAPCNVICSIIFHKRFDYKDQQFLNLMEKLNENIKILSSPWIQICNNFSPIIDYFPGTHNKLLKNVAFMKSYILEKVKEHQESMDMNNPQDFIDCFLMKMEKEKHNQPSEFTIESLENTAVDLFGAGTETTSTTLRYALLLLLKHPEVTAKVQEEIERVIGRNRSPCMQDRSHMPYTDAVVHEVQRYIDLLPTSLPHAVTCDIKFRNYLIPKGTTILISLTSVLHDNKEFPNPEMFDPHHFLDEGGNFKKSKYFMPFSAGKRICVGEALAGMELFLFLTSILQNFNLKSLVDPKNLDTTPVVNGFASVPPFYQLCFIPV
Method: Protocol was based on literature [Perez-Del Palacio et al. (2017) Front Pharmacol 8, 202]. Assessment of CYP450 inhibition was conducted in 96-well plate format at 37° C. Test compounds were dissolved in DMSO/acetonitrile (2 μL) and diluted in 98 μL NADPH solution (2 mM). Reactions were started by addition of 100 μL potassium phosphate buffer (200 mM, pH 7.4) containing Human Liver Microsomes (HLM) (0.5 mg/mL). Probe reactions for CYP3A4, CYP2D6 and CYP2C9 were conducted with 50 μM testosterone, 22 μM dextromethorphan and 10 μM diclofenac for 15 min. Reactions were terminated with the addition of a quench solution (90 μL) of acetonitrile containing internal standards for LC-MS/MS determination (60 ppb cortisone, 100 ppb 4′-hydroxydiclofenac 13C6, 60 ppb levallorphan).

Structure (SMILES) | PTZ-induced seizure behavior, concentration-response retest [1] | CYP2C9, effect (CYP2C9) | IC50 (CYP2C9)
CCc1ccc(C2=C(C)C(=O)C3(O2)C(=O)NC(OC)(C(=O)c2ccccc2)C3O)o1 (centres unmarked) [azaspirofuran A] | No antiseizure activity | Weak | 47.3 µM
CC/C=C\[C@H](O)[C@H](O)C1=C(C)C(=O)[C@]2(O1)C(=O)N[C@](OC)(C(=O)c1ccccc1)[C@H]2O [pseurotin A2] |  | No effect | > 88 µM
